Experiments:
[1] = system: SEM cells; assay: cell viability relative to DMSO control; higher = less cytotoxic; details: 48 h
Method in brief: (§1)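 Leukemia cells (NOMO1 or SEM, 500 cells/well; P12-Ichikawa, 1000 cells/well) were seeded in 5 μl in 1536-well plates after at least four passages of adaptation to each medium. They received library compounds in DMSO by pin dosing, 11 threefold points from 47 μM to 0.79 nM. Luminescence with CellTiter-Glo One was read after 48 h at 37°C. Viability is stated per plate relative to DMSO wells, with cell-free wells as background.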

[2] = system: NOMO1; assay: AUC of viability dose-response curve (% viability x log10 dose units); higher = less sensitive; details: 48 h
Method in brief: (§2)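 Library compounds in DMSO were applied for 48 h at 37°C at 11 threefold doses (47 μM to 0.79 nM) to medium-adapted leukemia cells in 1536-well plates holding 500 or 1000 cells/well. Luminescence from CellTiter-Glo One was normalised plate by plate against DMSO and cell-free wells. Area under the curve came from trapezoidal integration of a log-logistic fit, after scaling curves that rose above full viability and discarding those that failed quality control. The fit had four parameters and used log10 doses.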

[3] = system: P12-Ichikawa; assay: as above; details: 48 h
Method in brief: as §2

[4] = system: SEM cells; assay: as above; details: 48 h
Method in brief: as §2

[5] = system: NOMO1; assay: cell viability relative to DMSO control; higher = less cytotoxic; details: HPLM + 10% dialyzed FBS, 48 h
Method in brief: as §1

[6] = system: P12-Ichikawa; assay: as above; details: HPLM + 10% dialyzed FBS, 48 h
Method in brief: as §1

CC(C)(Oc1ccc(C2CC2(Cl)Cl)cc1)C(=O)O (configuration not stated)
cell viability [%], [1]
Details	HPLM + 10% dialyzed FBS	RPMI 5 mM glucose + 10% FBS
0.000781 µM	125	117
0.00234 µM	131	109
0.00702 µM	123	101
0.0211 µM	125	111
0.0632 µM	127	101
0.19 µM	128	110
0.569 µM	120	91.9
1.71 µM	122	119
5.12 µM	95.3	79.9
15.4 µM	110	106
46.1 µM	63.6	49

AUC of viability dose-response curve
Details	[2]	[3]	[4]
HPLM + 10% dialyzed FBS	457	453	444
RPMI 5 mM glucose + 10% FBS	454	447	464
RPMI 5 mM glucose + 10% dialyzed FBS	453	453	456

CO[C@H]1/C=C\C=C(\C)C(=O)NC2=CC(=O)C(NCCN(C)C)=C(C[C@@H](C)C[C@H](OC)[C@H](O)[C@@H](C)/C=C(/C)[C@@H]1OC(N)=O)C2=O
[1], HPLM + 10% dialyzed FBS
Details	cell viability [%]
0.000781 µM	108
0.00234 µM	124
0.00702 µM	118
0.0211 µM	120
0.0632 µM	122
0.19 µM	60.8
0.569 µM	31.6
1.71 µM	25.3
5.12 µM	25.5
15.4 µM	23
46.1 µM	6.44

AUC of viability dose-response curve
Details	[2]	[3]	[4]
HPLM + 10% dialyzed FBS	305	362	279
RPMI 5 mM glucose + 10% FBS	308	328	274
RPMI 5 mM glucose + 10% dialyzed FBS	309	333	268

CCCCCC[C@H]1C(=O)O[C@H](C)[C@H](NC(=O)c2cccc(NC=O)c2O)C(=O)O[C@@H](C)[C@@H]1OC(=O)CC(C)C
[1], HPLM + 10% dialyzed FBS
Details	cell viability [%]
0.000781 µM	90.7
0.00234 µM	130
0.00702 µM	111
0.0211 µM	113
0.0632 µM	115
0.19 µM	123
0.569 µM	137
1.71 µM	111
5.12 µM	110
15.4 µM	112
46.1 µM	101

AUC of viability dose-response curve
Details	[2]	[3]	[4]
HPLM + 10% dialyzed FBS	444	417	476
RPMI 5 mM glucose + 10% FBS	438	403	403
RPMI 5 mM glucose + 10% dialyzed FBS	442	403	416

CCN1CCC(n2cc(CNc3cc(Cl)c4ncc(C#N)c(Nc5ccc(F)c(Cl)c5)c4c3)nn2)CC1
AUC of viability dose-response curve
Details	[2]	[3]	[4]
HPLM + 10% dialyzed FBS	433	377	433
RPMI 5 mM glucose + 10% FBS	445	432	367
RPMI 5 mM glucose + 10% dialyzed FBS	447	426	400

CC1COC2(CCN(CC2)C/3=N/C(=O)C4=CC(=CC(=C4S3)[N+]([O-])=O)C(F)(F)F)O1 (configuration not stated)
[1], HPLM + 10% dialyzed FBS
Details	cell viability [%]
0.000781 µM	97.9
0.00234 µM	105
0.00702 µM	122
0.0211 µM	109
0.0632 µM	93.9
0.19 µM	126
0.569 µM	133
1.71 µM	122
5.12 µM	117
15.4 µM	82.3
46.1 µM	78.3

AUC of viability dose-response curve
Details	[2]	[3]	[4]
HPLM + 10% dialyzed FBS	471	448	456
RPMI 5 mM glucose + 10% FBS	473	442	441
RPMI 5 mM glucose + 10% dialyzed FBS	467	434	446

NC(=O)c1ccc2[nH]ccc2c1
AUC of viability dose-response curve
Details	[2]	[3]	[4]
HPLM + 10% dialyzed FBS	440	440	444
RPMI 5 mM glucose + 10% FBS	464	442	312
RPMI 5 mM glucose + 10% dialyzed FBS	460	430	438

CN(C)CCc1ccc(O)cc1
[1], HPLM + 10% dialyzed FBS
Details	cell viability [%]
0.000781 µM	114
0.00234 µM	120
0.00702 µM	134
0.0211 µM	130
0.0632 µM	137
0.19 µM	135
0.569 µM	116
1.71 µM	140
5.12 µM	113
15.4 µM	135
46.1 µM	110

AUC of viability dose-response curve
Details	[2]	[3]	[4]
HPLM + 10% dialyzed FBS	454	448	471
RPMI 5 mM glucose + 10% FBS	460	446	455
RPMI 5 mM glucose + 10% dialyzed FBS	461	450	471

O=[S+]([O-])(CC1CS1)c1ccc(Oc2ccccc2)cc1 (configuration not stated)
AUC of viability dose-response curve
Details	[2]	[3]	[4]
HPLM + 10% dialyzed FBS	448	462	451
RPMI 5 mM glucose + 10% FBS	461	445	437
RPMI 5 mM glucose + 10% dialyzed FBS	435	447	450

Nc1nc(Cl)nc2c1ncn2[C@H]1C[C@H](O)[C@@H](CO)O1
[1], HPLM + 10% dialyzed FBS
Details	cell viability [%]
0.000781 µM	114
0.00234 µM	119
0.00702 µM	115
0.0211 µM	133
0.0632 µM	115
0.19 µM	15.7
0.569 µM	13.9
1.71 µM	12.7
5.12 µM	11.6
15.4 µM	9.89
46.1 µM	5.05

AUC of viability dose-response curve
Details	[2]	[3]	[4]
HPLM + 10% dialyzed FBS	256	263	238
RPMI 5 mM glucose + 10% FBS	270	254	226
RPMI 5 mM glucose + 10% dialyzed FBS	257	272	212

CO[C@@H]1COCC[C@@H]1N[C@@H]1CC[C@@](C(=O)N2CCc3ncc(C(F)(F)F)cc3C2)(C(C)C)C1
Details	AUC of viability dose-response curve, [2]	AUC of viability dose-response curve, [4]	cell viability, [5] [%]	cell viability, [6] [%]
0.000781 µM	–	–	107	98
0.00234 µM	–	–	133	109
0.00702 µM	–	–	121	123
0.0211 µM	–	–	142	119
0.0632 µM	–	–	157	113
0.19 µM	–	–	141	119
0.569 µM	–	–	132	118
1.71 µM	–	–	127	126
5.12 µM	–	–	143	127
15.4 µM	–	–	151	123
46.1 µM	–	–	96.6	47.4
HPLM + 10% dialyzed FBS	472	466	–	–
RPMI 5 mM glucose + 10% FBS	466	458	–	–
RPMI 5 mM glucose + 10% dialyzed FBS	472	467	–	–

[1], HPLM + 10% dialyzed FBS
Details	cell viability [%]
0.000781 µM	97.1
0.00234 µM	107
0.00702 µM	110
0.0211 µM	112
0.0632 µM	111
0.19 µM	113
0.569 µM	114
1.71 µM	102
5.12 µM	119
15.4 µM	103
46.1 µM	68.1

— the supplement of paper PMC11451515
